target: CRBN truncate (318-426) (Homo sapiens (Human), UniProt Q96SW2); assay: Measurement of molecular interactions using surface plasmon resonance (SPR), Biacore T200; format: binding; details: 25° C., immobilized CRBN truncate, upper limit of measurement 200 μM
Description: The instrument used was the Biacore T200 (manufactured by Cytiva). The CRBN truncate (318-426) was obtained by expressing a construct with an Avi-tag added at the C-terminus. The sensor chip used was Sensor Chip SA (manufactured by Cytiva). The CRBN truncate was immobilized using the affinity between SA (streptavidin) on the sensor chip and the Avi-tag. The running buffer was a mixture of 10 mM HEPES pH 7.5, 150 mM NaCl, 1 mM TCEP, 0.005% Tween 20, and 2% DMSO. […] Contact time and dissociation time were set at 60 seconds and 120 seconds, respectively.

Chain of CRBN truncate (318-426) (Q96SW2 318-426): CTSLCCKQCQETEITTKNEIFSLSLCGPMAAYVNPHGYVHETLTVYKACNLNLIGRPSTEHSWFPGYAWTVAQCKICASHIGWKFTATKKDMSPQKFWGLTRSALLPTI

| Kd | SMILES |
| --- | --- |
| 50 to 100 µM | CC(C)(C)OC(=O)COc1cccc(C(=O)NC2CCCC(=O)NC2=O)n1 (stereo not drawn) [Example 69, tert-Butyl 2-(6-((2,7-dioxoazepan-3-yl)carbamoyl)pyridin-2-yl) oxyacetate] |
| ≥ 100 µM | Cc1sc2c(c1C)C(c1ccc(Cl)cc1)=N[C@@H](CC(=O)NCCCCCCc1cccc(C(=O)N3CCC4(CCCC(=O)NC4=O)C3)c1)c1nnc(C)n1-2 (stereo partly drawn) [Example 308, 2-[(9S)-7-(4-chlorophenyl)-4,5,13-trimethyl-3-thia-1,8,11,12-tetraazatricyclo[8.3.0.02,6]trideca-2(6),4,7,10,12-pentaen-9-yl]-N-[6-[3-(6,8-dioxo-2,7-diazaspiro[4.6]undecane-2-carbonyl)phenyl]hexyl]acetamide] |
| ≥ 100 µM | CC(C)(C)OC(=O)c1cnc(N2CCC3(CCCC(=O)NC3=O)C2)s1 (stereo not drawn) [Example 95, tert-Butyl 2-(6,8-dioxo-2,7-diazaspiro [4.6]undecan-2-yl)-1,3-thiazole-5-carboxylate] |
| ≥ 100 µM | Nc1ccc2nc(N3CCCC(=O)NC3=O)sc2c1 [Example 118, 1-(6-Amino-1,3-benzothiazol-2-yl)-1,3-diazepane-2,4-dione] |
| ≥ 100 µM | Nc1nccc(N2CC3(CC(=O)N(C4CCC(=O)NC4=O)C3=O)C2)n1 (stereo not drawn) [Example 230, 2-(2-Aminopyrimidin-4-yl)-6-(2,6-dioxopiperidin-3-yl)-2,6-diazaspiro[3.4]octane-5,7-dione] |
| < 50 µM | C[C@@H]1Cc2c([nH]c3ccccc23)[C@@H](c2cnc(N3CCC(CN(C)CCCCCCCc4ccc(C(=O)N5CCC6(CCCC(=O)NC6=O)C5)cc4)CC3)nc2)N1CC(C)(C)F (stereo partly drawn) [Example 361-2, 2-[4-[7-[[1-[5-[(1R,3R)-2-(2-fluoro-2-methyl-propyl)-3-methyl-1,3,4,9-tetrahydropyrido[3,4-b]indol-1-yl]pyrimidin-2-yl]-4-piperidyl]methyl-methyl-amino]heptyl]benzoyl]-2,7-diazaspiro[4.6]undecane-6,8-dione] |
| ≥ 100 µM | CC(=O)Nc1ccc(N2CCC3(CCCC(=O)NC3=O)C2)c(F)c1 (stereo not drawn) [Example 88, N-[4-(6,8-dioxo-2,7-diazaspiro[4.6]undecan-2-yl)-3-fluorophenyl]acetamide] |
| 50 to 100 µM | COC(=O)c1ccc(CN2CC3(CC(=O)N(C4CCC(=O)NC4=O)C3=O)C2)cc1 (stereo not drawn) [Example 54, Methyl 4-[[6-(2,6-dioxopiperidin-3-yl)-5,7-dioxo-2,6-diazaspiro[3.4]octan-2-yl]methyl]benzoate] |
| < 50 µM | CC(C)(C)OC(=O)N1CCC(c2cnc(N3CCC4(CCCC(=O)NC4=O)C3)nc2)CC1 (stereo not drawn) [Example 168-2, tert-Butyl 4-[2-(6,8-dioxo-2,7-diazaspiro [4.6]undecan-2-yl)pyrimidin-5-yl]piperidine-1-carboxylate] |
| ≥ 100 µM | CC(C)(C)OC(=O)NCCCCCCCNc1ccc2nc(N3CCCC(=O)NC3=O)sc2c1 [Example 303, tert-Butyl N-[7-[[2-(2,4-dioxo-1,3-diazepan-1-yl)-1,3-benzothiazol-6-yl]amino]heptyl]carbamate] |
| ≥ 100 µM | COc1cccc2sc(N3CCC4(CCCC(=O)NC4=O)C3)nc12 (stereo not drawn) [Example 189, 2-(4-Methoxy-1,3-benzothiazol-2-yl)-2,7-diazaspiro[4.6]undecane-6,8-dione] |
| ≥ 100 µM | CC(C)(C)OC(=O)NCCCCCCc1ccc(-c2cn(C3CCCC(=O)NC3=O)nn2)cc1 (stereo not drawn) [Example 150, tert-Butyl N-[6-[4-[1-(2,7-dioxoazepan-3-yl)triazol-4-yl]phenyl]hexyl]carbamate] |
| < 50 µM | Cc1sc2c(c1C)C(c1ccc(Cl)cc1)=N[C@@H](CC(=O)NCCCCCCc1ccc(C(=O)N3CCN(C4CCCC(=O)NC4=O)C(=O)C3)cc1Cl)c1nnc(C)n1-2 (stereo partly drawn) [Example 327, N-[6-[2-chloro-4-[4-(2,7-dioxoazepan-3-yl)-3-oxopiperazine-1-carbonyl]phenyl]hexyl]-2-[(9S)-7-(4-chlorophenyl)-4,5,13-trimethyl-3-thia-1,8,11,12-tetraazatricyclo[8.3.0.02,6]trideca-2(6),4,7,10,12-pentaen-9-yl]acetamide] |
| < 50 µM | Cc1sc2c(c1C)C(c1ccc(Cl)cc1)=N[C@@H](CC(=O)NCCCCCCCCNC(=O)c1ccc(N3CC4(CC(=O)N(C5CCC(=O)NC5=O)C4=O)C3)nc1)c1nnc(C)n1-2 (stereo partly drawn) [Example 330, N-[8-[[2-[(9S)-7-(4-chlorophenyl)-4,5,13-trimethyl-3-thia-1,8,11,12-tetraazatricyclo[8.3.0.02,6]trideca-2(6),4,7,10,12-pentaen-9-yl]acetyl]amino]octyl]-6-[6-(2,6-dioxopiperidin-3-yl)-5,7-dioxo-2,6-diazaspiro[3.4]octan-2-yl]pyridine-3-carboxamide] |
| ≥ 100 µM | CC(C)(C)OC(=O)NCCCNc1nccc(N2CC3(CC(=O)N(C4CCC(=O)NC4=O)C3=O)C2)n1 (stereo not drawn) [Example 233] |
| ≥ 100 µM | O=C1CCCC(c2ccc([N+](=O)[O-])cc2)C(=O)N1 (stereo not drawn) [Example 61, 3-(4-Nitrophenyl) azepane-2,7-dione] |
| ≥ 100 µM | CC(C)(C)OC(=O)NCCCCCCc1ccccc1C(=O)N1CCC2(CCCC(=O)NC2=O)C1 (stereo not drawn) [Example 159, tert-ButylN-[6-[2-(6,8-dioxo-2,7-diazaspiro[4.6]undecane-2-carbonyl)phenyl]hexyl]carbamate] |
| ≥ 100 µM | Cc1sc2c(c1C)C(c1ccc(Cl)cc1)=N[C@@H](CC(=O)NCCCCCCCCNC(=O)c1ccc(N3CCC4(CCCC(=O)NC4=O)CC3=O)nc1)c1nnc(C)n1-2 (stereo partly drawn) [Example 335, N-[8-[[2-[(9S)-7-(4-chlorophenyl)-4,5,13-trimethyl-3-thia-1,8,11,12-tetraazatricyclo[8.3.0.02,6]trideca-2(6),4,7,10,12-pentaen-9-yl]acetyl]amino]octyl]-6-(4,7,9-trioxo-3,8-diazaspiro[5.6]dodecan-3-yl)pyridine-3-carboxamide] |
| ≥ 100 µM | CC(C)(C)OC(=O)N1CCN(C2CCCC(=O)NC2=O)C(=O)C1 (stereo not drawn) [Example 29-1, tert-Butyl 4-(2,7-dioxoazepan-3-yl)-3-oxopiperazine-1-carboxylate] |
| ≥ 100 µM | O=C(O)CCCCCCCc1nn(C2CCCC(=O)NC2=O)c2ccccc12 (stereo not drawn) [Example 209, 8-[1-(2,7-Dioxoazepan-3-yl)indazol-3-yl]octanoic acid] |
| ≥ 100 µM | O=C1CCCC2(CCN(C(=O)C3CCN(c4ncccn4)CC3)C2)C(=O)N1 (stereo not drawn) [Example 269, 2-(1-Pyrimidin-2-ylpiperidine-4-carbonyl)-2,7-diazaspiro [4.6]undecane-6,8-dione] |
| < 50 µM | Cc1sc2c(c1C)C(c1ccc(Cl)cc1)=N[C@@H](CC(=O)NCCCCCCCCNC(=O)c1ccc3nc(N4CC5(CC(=O)N(C6CCC(=O)NC6=O)C5=O)C4)sc3c1)c1nnc(C)n1-2 (stereo partly drawn) [Example 337, N-[8-[[2-[(9S)-7-(4-chlorophenyl)-4,5,13-trimethyl-3-thia-1,8,11,12-tetraazatricyclo[8.3.0.02,6]trideca-2(6),4,7,10,12-pentaen-9-yl]acetyl]amino]octyl]-2-[6-(2,6-dioxopiperidin-3-yl)-5,7-dioxo-2,6-diazaspiro[3.4]octan-2-yl]-1,3-benzothiazole-6-carboxamide] |
| < 50 µM | Cc1sc2c(c1C)C(c1ccc(Cl)cc1)=N[C@@H](CC(=O)NCCc1ccc(S(=O)(=O)N3CC4(CC(=O)N(C5CCC(=O)NC5=O)C4=O)C3)cc1)c1nnc(C)n1-2 (stereo partly drawn) [Example 317, 2-[(9S)-7-(4-chlorophenyl)-4,5,13-trimethyl-3-thia-1,8,11,12-tetraazatricyclo[8.3.0.02,6]trideca-2(6),4,7,10,12-pentaen-9-yl]-N-[2-[4-[[6-(2,6-dioxopiperidin-3-yl)-5,7-dioxo-2,6-diazaspiro[3.4]octan-2-yl]sulfonyl]phenyl]ethyl]acetamide] |
| 50 to 100 µM | CC(C)(C)OC(=O)CCc1ccc2c(c1)sc(=O)n2C1CCCC(=O)NC1=O (stereo not drawn) [Example 262, tert-Butyl 3-[3-(2,7-dioxoazepan-3-yl)-2-oxo-1,3-benzothiazol-6-yl]propanoate] |
| < 50 µM | Cc1sc2c(c1C)C(c1ccc(Cl)cc1)=N[C@@H](CC(=O)NCCCCCCCNC(=O)COc1cccc(C(=O)NC3CCCC(=O)NC3=O)n1)c1nnc(C)n1-2 (stereo partly drawn) [Example 347, 6-[2-[7-[[2-[(9S)-7-(4-chlorophenyl)-4,5,13-trimethyl-3-thia-1,8,11,12-tetraazatricyclo[8.3.0.02,6]trideca-2(6),4,7,10,12-pentaen-9-yl]acetyl]amino]heptylamino]-2-oxo-ethoxy]-N-(2,7-dioxoazepan-3-yl)pyridine-2-carboxamide] |
| ≥ 100 µM | CC(C)(C)OC(=O)NCCCNc1nccc(N2CCC3(CCCC(=O)NC3=O)C2)n1 (stereo not drawn) [Example 185] |
| ≥ 100 µM | Cc1cc(N2CCC3(CCCC(=O)NC3=O)C2)ccc1[N+](=O)[O-] (stereo not drawn) [Example 81, 2-(3-Methyl-4-nitrophenyl)-2,7-diazaspiro[4.6]undecane-6,8-dione] |
| 50 to 100 µM | Cn1c(=O)n(C2CCCC(=O)NC2=O)c2cccc(CCCCC(=O)OC(C)(C)C)c21 (stereo not drawn) [Example 214, tert-Butyl 5-[1-(2,7-dioxoazepan-3-yl)-3-methyl-2-oxobenzimidazol-4-yl]pentanoate] |
| ≥ 100 µM | O=C1CCCC(Oc2ccccc2[N+](=O)[O-])C(=O)N1 (stereo not drawn) [Example 66-1, 3-(2-Nitrophenoxy) azepane-2,7-dione] |
| < 50 µM | Cn1c(=O)n(C2CCCC(=O)NC2=O)c2ccc(C3CCN(CC(=O)OC(C)(C)C)CC3)cc21 (stereo not drawn) [Example 219, tert-Butyl 2-[4-[1-(2,7-dioxoazepan-3-yl)-3-methyl-2-oxobenzimidazol-5-yl]piperidin-1-yl]acetate] |

Reference: patent US20250388593A1 (MITSUBISHI TANABE PHARMA CORPORATION, priority 2023, published 2025)
